Experimental data reported in US20240366571A1, “MODULATORS OF SK4 POTASSIUM CHANNEL AND USES THEREOF” (Ramot at Tel-Aviv University Ltd., priority 2022, published 2024).
“Also recorded” adds a separate entry of the source. Read-outs that look alike come from different tables or passages of the source.

What was measured:
Type in all cases: cell-based
[1] = molecular target: T1, WT SK4 channel co-transfected with CaM (Homo sapiens, UniProt O15554); assay: Whole-cell patch-clamp of WT SK4 channel co-transfected with WT CaM or CaM mutants
T1 construct: expressed in transfected cells; host or cells: CHO cells
Protocol: (§1) Constructs: For CHO cell transfection, the following were cloned: human SK1, rat SK2, human SK3, and rat calmodulin into the pcDNA3 vector, human SK4 into pEGFP-C1 vector, and PIP4,5-kinase into an IRES-dsRed plasmid. The mutations were introduced using the PCR-based QuikChange™ site-directed mutagenesis (Stratagene®) and were verified by full sequencing of the entire plasmid vector.
(§2) Whole-cell patch-clamp recording: Voltage-clamp recordings were performed using the whole-cell configuration of the patch-clamp technique. Signals were amplified using an […] patch-clamp amplifier (Molecular Devices), sampled at 5 kHz and filtered at 2.4 kHz via a four pole Bessel low pass filter. Data were acquired using pClamp™ 10.5 software in conjunction with an Axon™ DigiData® 1440A interface (Molecular Devices). The patch pipettes were pulled from borosilicate glass (Harvard Apparatus) with a resistance of 3-5 megaohms (MΩ). The intracellular pipette solution contained 130 mM KCl, 5 mM EGTA, 10 mM HEPES, pH 7.3 (adjusted with KOH), and CaCl2 calculated for a final concentration of 1 μM free-Ca^2+, by MAXCHELATOR (WEBMAXC STANDARD) software, with sucrose added to adjust osmolarity to 290 mosM. The external solution (310 mosM) contained 140 mM NaCl, 4 mM KCl, 1.8 mM CaCl2, 1.2 mM MgCl2, 11 mM glucose, and 5.5 mM HEPES adjusted with NaOH to pH 7.3. CHO cells were held at −90 millivolt (mV) and SK4 K^+ currents were activated using a voltage ramp protocol from −100 mV to +60 mV for 150 milliseconds. Electrophysiological data analysis was performed using the Clampfit program (pClamp™ 10.5; Molecular Devices).
To examine ex-vivo the interactions between BA6b9 and the simulated residues seen in FIG. 5B, residues that are in atomic proximity and are expected to interact with BA6b9 were mutated. Such mutated residues were, for example, R191 and H192 of linker S4-S5, M72 and M76 of the CaM linker as well as L19, E22, Y179, S181, A184, Q187 and R189, which are more distant from BA6b9.

human SK1 = molecular target: T2, human SK1 (Homo sapiens, UniProt Q92952); assay: Whole-cell patch-clamp of SK1 currents in CHO cells; conditions: 20 μM
T2 construct: expressed in transfected cells; host or cells: CHO cells
Protocol: as §1
(§3) Cell Culture and Transfection: Chinese hamster ovary (CHO) cells were grown in Dulbecco's modified Eagle's medium supplemented with 2 millimolar (mM) glutamine, 10% fetal calf serum, and antibiotics. In brief, 40,000 cells seeded on poly-L-lysine-coated glass coverslips (13 millimeter (mm) in diameter) in a 24-multiwell plate were transfected with 0.5 microgram (μg) pEGFP-SK4/0.5 μg mutant SK4, 1.2 μg dsRed-PIP4,5-kinase or with 1 μg SK1/SK2/SK3 together with pIRES-CD8 (0.3 μg) as a marker for transfection. Transfection was performed using TransIT-LT1 Transfection Reagent (Mirus Bio) according to the manufacturer's protocol. For electrophysiology, transfected cells were visualized approximately 40 hours after transfection with a Zeiss Axiovert 35 inverted florescence microscope.
as §2, with “The external solution (310 mosM) contained 140 mM NaCl, 4 mM KCl, 1.8 mM CaCl2, 1.2 mM MgCl2, 11 mM glucose, and 5.5 mM HEPES adjusted with NaOH to pH 7.3. CHO cells were held at −90 millivolt (mV) and SK4 K^+ currents were activated using a voltage ramp protocol from −100 mV to +60 mV for 150 milliseconds. Electrophysiological data analysis was performed using the Clampfit program (pClamp™ 10.5; Molecular Devices).” left out

human SK3 = molecular target: T3, human SK3 (Homo sapiens, UniProt Q9UGI6); assay: Whole-cell patch-clamp of SK3 currents in CHO cells; conditions: 20 μM
T3 construct: expressed in transfected cells; host or cells: CHO cells
Protocol: as §1
as §3, with “Transfection was performed using TransIT-LT1 Transfection Reagent (Mirus Bio) according to the manufacturer's protocol. For electrophysiology, transfected cells were visualized approximately 40 hours after transfection with a Zeiss Axiovert 35 inverted florescence microscope.” left out
Whole-cell patch-clamp recording: Voltage-clamp recordings were performed using the whole-cell configuration of the patch-clamp technique. […] The intracellular pipette solution contained 130 mM KCl, 5 mM EGTA, 10 mM HEPES, pH 7.3 (adjusted with KOH), and CaCl2 calculated for a final concentration of 1 μM free-Ca^2+, by MAXCHELATOR (WEBMAXC STANDARD) software, with sucrose added to adjust osmolarity to 290 mosM. […]

With CCCCCCCn1c(=O)oc2ccccc21 [BA6b9, 3-heptylbenzo[d]oxazol-2(3H)-one] the “modulation of WT SK4 co-transfected with CaM mutant M72A (representative trace)” value ([1]; 20 μM) was “not indicating modulation”, the inhibition at 20 µM ([1]; read-out: inhibition of WT SK4 co-transfected with CaM mutant M72A) was 0% and the inhibition at 20 µM ([1]; read-out: inhibition of WT SK4 co-transfected with CaM mutant M76A) was 19%. For the same compound, the inhibition at 20 µM ([1]; read-out: inhibition of WT SK4 co-transfected with WT CaM) was 47%, the “SK1 activity in comparison with control” value (human SK1) was 118% and the “SK1 drug-to-control current ratio” value (human SK1) was 1.18. The “effect on SK1 currents (representative trace)” value (human SK1) was “nearly nullified effect; also recorded: did not lead to modulation”, the “SK3 activity in comparison with control” value (human SK3) was 95% and the “SK3 drug-to-control current ratio” value (human SK3) was 0.95.
